Reference: PMC8304462, “Isolation, Structural Characterization and Antidiabetic Activity of New Diketopiperazine Alkaloids from Mangrove Endophytic Fungus Aspergillus sp. 16-5c” (Marine Drugs, 2021)

Legend:
[1] = target: T1, PTP1B (Homo sapiens, UniProt P18031); experiment: PTP1B inhibitory activity (p-NPP hydrolysis); format: biochemical; conditions: screening concentration 100 μg/mL
T1 sequence (P18031 1-435): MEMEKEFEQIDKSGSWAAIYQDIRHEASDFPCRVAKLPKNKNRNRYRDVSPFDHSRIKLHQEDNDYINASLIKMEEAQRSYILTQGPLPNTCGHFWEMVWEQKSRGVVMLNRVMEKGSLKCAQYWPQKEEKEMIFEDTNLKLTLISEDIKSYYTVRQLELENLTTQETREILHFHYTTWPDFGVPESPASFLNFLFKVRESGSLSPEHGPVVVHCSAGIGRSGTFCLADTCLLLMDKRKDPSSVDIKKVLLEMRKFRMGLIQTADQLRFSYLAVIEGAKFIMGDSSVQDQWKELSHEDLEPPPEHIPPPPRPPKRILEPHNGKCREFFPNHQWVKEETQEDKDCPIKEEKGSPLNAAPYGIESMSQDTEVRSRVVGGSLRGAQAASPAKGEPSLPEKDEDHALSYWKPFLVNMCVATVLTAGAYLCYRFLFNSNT
Method: PTP1B inhibitory activity was determined by measuring the enzymatic hydrolysis rate of p-nitrophenyl phosphate (p-NPP) as reported in the study. This assay was performed at 37 °C with a final volume of 100 μL, using a Tris-HCl buffer (25 mM Tris-HCl, 1 mM EDTA, 1 mM DTT, pH 7.5). […] After 30 min, the reaction ended by adding 50 μL 2.5 M NaOH solution.

[2] = target: α-glucosidase; experiment: α-glucosidase inhibition assay (p-NPG, 96-well microplate); format: biochemical; conditions: 37 °C, pH 6.86, substrate p-NPG
Method: The α-glucosidase inhibition assay was performed in a 96-well microplate reader method as described in a previous report. The α-glucosidase assay was performed at 37 °C with a final volume of 200 μL. […] 20 μL substrate p-nitrophenyl-α-D-glucopyranoside (p-NPG) was added to each well to start the reaction. The reaction was incubated at 37 °C for 15 min and stopped by the addition of 50 μL 0.4 M Na2CO3.

Row | Structure (SMILES) | PTP1B (Inhibition Ratio/%) [1] [%] | IC50 [2] [µM]
1 | C=CC(C)(C)c1[nH]c2ccccc2c1C=C1NC(=O)C(CCCO)NC1=O (centres unmarked) [Compound 1, aspergiamide A] | 29 | 18.2
2 | C=CC(C)(C)c1[nH]c2ccccc2c1C=C1NC(=O)C(CCC(=O)O)NC1=O (centres unmarked) [Compound 2, aspergiamide B] | <10 | 131
3 | C=CC(C)(C)c1[nH]c2ccccc2c1C=C1NC(=O)C2CC(O)CN2C1=O (centres unmarked) [Compound 3, aspergiamide C] | <10 | 83.9
4 | C=CC(C)(C)c1[nH]c2ccccc2c1C(O)C1NC(=O)C2CCCN2C1=O (centres unmarked) [Compound 4, aspergiamide D] | <10 | 144
5 | C=CC(C)(C)c1[nH]c2ccccc2c1C(OC)C1NC(=O)C2CCCN2C1=O (centres unmarked) [Compound 5, aspergiamide E] | <10 | 1090
6 | O=C1NC(O)c2nc3ccccc3c(=O)n2C1Cc1ccc(O)cc1 (centres unmarked) [Compound 6, aspergiamide F] | <10 | 267
7 | C=CC(C)(C)c1[nH]c2ccccc2c1/C=C1\NC(=O)C2(O)CCCN2C1=O (centres unmarked) [Compound 7, brevianamide Q] | <10 | 198
8 | C=CC(C)(C)c1[nH]c2ccccc2c1/C=C1\NC(=O)C2(OC)CCCN2C1=O (centres unmarked) [Compound 8, brevianamide R] | <10 | 364
9 | C=CC(C)(C)c1[nH]c2ccccc2c1/C=c1\[nH]c(=O)c2n(c1=O)CCC=2 [Compound 9, brevianamide K] | <10 | 7.6
10 | C=CC(C)(C)c1[nH]c2ccccc2c1/C=C1\NC(=O)C2CCCN2C1=O (centres unmarked) [Compound 10, brevianamide W] | <10 | 40.7
11 | CC(C)=CCn1cc(CC2NC(=O)C3CCCN3C2=O)c2ccccc21 [Compound 11, N-Prenyl-cyclo-L-tryptophyl-L-proline] | <10 | 37.5
12 | O=C1N[C@@H](Cc2c[nH]c3ccccc23)C(=O)N2CCC[C@@H]12 [Compound 12, brevianamide F] | <10 | 1090
13 | C=CC(C)(C)c1[nH]c2ccccc2c1CC1NC(=O)C2CCCN2C1=O (stereo not drawn) [Compound 13, epi-deoxybrevianamide E] | <10 | 480
14 | O=C1N[C@@H](Cc2c[nH]c3ccccc23)C(=O)N[C@H]1Cc1ccccc1 [Compound 14, cyclo-(tryptophyl-phenylalanyl)] | <10 | 353
15 | O=C1N[C@@H](O)c2nc3ccccc3c(=O)n2[C@H]1Cc1ccccc1 [Compound 15, brevianamide M] | <10 | 67.8
16 | O=C1NC(=O)[C@H](Cc2ccccc2)n2c1nc1ccccc1c2=O [Compound 16, brevianamide N] | <10 | 363
